Where “and” joins values, the source holds several entries; their conditions need not be identical. Identical values can stand only once. Inconclusive results and toxic doses are left out. The calls were made as follows: active = survival T/C of 150% or more; inactive = T/C below 125% in these data. Numbered stars: 1 amine (or outer) side, 2 acyl side, 3 side chain; on linkers, the order of the positions; unused ones are H or OH. Square brackets hold non-standard residues; d marks the D form. Peptide text beside a SMILES is read from it. X9 = C=CCC(O[*:1])C(=O)[*:2]; NMeV = CN[CH](C(=O)O)C(C)C; NMeA = CN[CH](C)C(=O)O; βAla = NCCC(=O)O
System: P388 leukemia ip, CD2F1 mice, survival T/C
Experiment: NCI In Vivo Anticancer Drug Screen. Data for tumor model P388 Leukemia (intraperitoneal) in CD2F1 (CDF1) mice
Details: endpoint: median survival time, higher = longer survival
Outline: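 Mice carrying the transplanted tumor received test compound or vehicle. Survival was recorded in each group, and the value is the treated-group measurement divided by that of the vehicle-treated control group.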

[1] = dose: 60.0 mg/kg/injection, schedule: Q01DX005 (ip), vehicle: Klucel (hydroxypropylcellulose) (HPC)
[2] = dose: 50.0 mg/kg/injection, schedule: Q01DX005 (ip), vehicle: Klucel (hydroxypropylcellulose) (HPC)
[3] = dose: 100.0 mg/kg/injection, schedule: Q01DX005 (ip), vehicle: Klucel (hydroxypropylcellulose) (HPC)
[4] = dose: 200.0 mg/kg/injection, schedule: Q01DX005 (ip), vehicle: Klucel (hydroxypropylcellulose) (HPC)
[5] = dose: 50.0 mg/kg/injection, schedule: Q01DX009 (ip), vehicle: Klucel (hydroxypropylcellulose) (HPC)
[6] = dose: 100.0 mg/kg/injection, schedule: Q01DX009 (ip), vehicle: Klucel (hydroxypropylcellulose) (HPC)
[7] = dose: 200.0 mg/kg/injection, schedule: Q01DX009 (ip), vehicle: Klucel (hydroxypropylcellulose) (HPC)
[8] = dose: 50.0 mg/kg/injection, schedule: Q01DX005 (ip), vehicle: saline
[9] = dose: 100.0 mg/kg/injection, schedule: Q01DX005 (ip), vehicle: saline
[10] = dose: 200.0 mg/kg/injection, schedule: Q01DX005 (ip), vehicle: saline
[11] = dose: 100.0 mg/kg/injection, schedule: Q04DX003 (ip), vehicle: saline with Tween-80
[12] = dose: 200.0 mg/kg/injection, schedule: Q04DX003 (ip), vehicle: saline with Tween-80
[13] = dose: 400.0 mg/kg/injection, schedule: Q04DX003 (ip), vehicle: saline with Tween-80
[14] = dose: 60.0 mg/kg/injection, schedule: Q01DX005 (ip), vehicle: saline with Tween-80
[15] = dose: 120.0 mg/kg/injection, schedule: Q01DX005 (ip), vehicle: saline with Tween-80
[16] = dose: 240.0 mg/kg/injection, schedule: Q01DX005 (ip), vehicle: saline with Tween-80
[17] = dose: 50.0 mg/kg/injection, schedule: Q01DX005 (ip), vehicle: saline with Tween-80
[18] = dose: 100.0 mg/kg/injection, schedule: Q01DX005 (ip), vehicle: saline with Tween-80
[19] = dose: 200.0 mg/kg/injection, schedule: Q01DX005 (ip), vehicle: saline with Tween-80
[20] = dose: 100.0 mg/kg/injection, schedule: Q01DX009 (ip), vehicle: saline with Tween-80
[21] = dose: 200.0 mg/kg/injection, schedule: Q01DX009 (ip), vehicle: saline with Tween-80
[22] = dose: 400.0 mg/kg/injection, schedule: Q01DX009 (ip), vehicle: saline with Tween-80
[23] = dose: 50.0 mg/kg/injection, schedule: Q01DX009 (ip), vehicle: saline with Tween-80
[24] = dose: 60.0 mg/kg/injection, schedule: Q01DX005 (ip), vehicle: saline
[25] = dose: 120.0 mg/kg/injection, schedule: Q01DX005 (ip), vehicle: saline

Measured: T/C

CC1(C)N=C(NN=C2CCCCC2)SP1(=O)NNc1ncccn1 (centres undefined)
inactive: dose: 15.0 mg/kg/injection, schedule: Q01DX005 (ip), vehicle: Klucel (hydroxypropylcellulose) (HPC) 102 % of control | dose: 30.0 mg/kg/injection, schedule: Q01DX005 (ip), vehicle: Klucel (hydroxypropylcellulose) (HPC) 103 % of control | [1] 98 % of control and 99 % of control

Cc1ccc(S(=O)(=O)Nn2nnnc2N)cc1
inactive: dose: 100.0 mg/kg/injection, schedule: Q01DX001 (ip), vehicle: Klucel (hydroxypropylcellulose) (HPC) 102 % of control | dose: 200.0 mg/kg/injection, schedule: Q01DX001 (ip), vehicle: Klucel (hydroxypropylcellulose) (HPC) 100 % of control | dose: 400.0 mg/kg/injection, schedule: Q01DX001 (ip), vehicle: Klucel (hydroxypropylcellulose) (HPC) 100 % of control

S=C(S)NC1CCN(Cc2ccccc2)CC1
inactive: [2] 107 % of control | [3] 102 % of control | [4] 96 % of control

CCc1nc(N)nc(N)c1-c1ccc(N2CCNCC2)cc1
inactive: [2] 96 % of control | [3] 95 % of control | [4] 101 % of control

O=C1Nc2ccc(Cl)cc2C1=O
inactive: [5] 99 % of control and 98 % of control | [6] 105 % of control | [7] 118 % of control and 89 % of control

CC(C)(C#N)NCCCNC(C)(C)C#N
inactive: [8] 100 % of control | [9] 97 % of control | [10] 95 % of control

C/C(=C\c1ccccc1)c1ccccn1
inactive: [8] 99 % of control | [9] 105 % of control | [10] 113 % of control

COc1ccc(-c2nc3ccccc3[nH]2)cc1
inactive: dose: 50.0 mg/kg/injection, schedule: Q04DX003 (ip), vehicle: saline with Tween-80 103 % of control | [11] 106 % of control | [12] 102 % of control | [13] 120 % of control

CCO/C=C1/N=C(Cc2ccccc2)OC1=O
inactive: dose: 60.0 mg/kg/injection, schedule: Q01DX005 (ip), vehicle: saline + Tween-80 + alcohol 100 % of control | dose: 120.0 mg/kg/injection, schedule: Q01DX005 (ip), vehicle: saline + Tween-80 + alcohol 94 % of control

CCOP(=O)(OCC)/C(C#N)=C\c1ccc(O)c(OC)c1
inactive: [11] 110 % of control | [12] 100 % of control | [13] 100 % of control

Cc1ccc(C2=C/C(=C/c3ccc(N(CCC#N)CCC#N)cc3)C(=O)O2)c(C)c1
inactive: dose: 100.0 mg/kg/injection, schedule: Q01DX001 (ip), vehicle: saline with Tween-80 95 % of control | dose: 200.0 mg/kg/injection, schedule: Q01DX001 (ip), vehicle: saline with Tween-80 95 % of control | dose: 400.0 mg/kg/injection, schedule: Q01DX001 (ip), vehicle: saline with Tween-80 87 % of control

c1ccc(Nc2ccc(CN3CCCC3)cc2)cc1
inactive: [1] 107 % of control | dose: 120.0 mg/kg/injection, schedule: Q01DX005 (ip), vehicle: Klucel (hydroxypropylcellulose) (HPC) 107 % of control | dose: 240.0 mg/kg/injection, schedule: Q01DX005 (ip), vehicle: Klucel (hydroxypropylcellulose) (HPC) 107 % of control

CC(C)(C)N1C(=O)NCS1(=O)=O
inactive: [2] 100 % of control | [3] 100 % of control | [4] 115 % of control

Cc1cc(=O)n2c(n1)sc1ccc3ccccc3c12
inactive: [14] 100 % of control | [15] 100 % of control | [16] 97 % of control

OCc1c(-c2ccccc2)c(-c2ccccc2)c2n1CCC2
inactive: [17] 103 % of control | [18] 92 % of control | [19] 99 % of control

C/C(=N\NC(=S)Nc1ccc([N+](=O)[O-])cc1S(=O)(=O)O)c1ccccn1
inactive: [17] 103 % of control | [18] 106 % of control | [19] 103 % of control

C[C@]12CCC(=O)C[C@H]1CC[C@@H]1[C@@H]2CC[C@@]2(C)[C@H]1CC[C@]2(C)O
inactive: [20] 90 % of control | [21] 95 % of control | [22] 100 % of control

Cc1ccc(C2SCC(=O)N2c2nncs2)s1 (centres undefined)
inactive: [17] 100 % of control | [18] 92 % of control | [19] 94 % of control

O=C1C2C3C=CC(C2C(=O)N1CCl)C1C2C(=O)N(CCl)C(=O)C2C31 (centres undefined)
inactive: dose: 6.25 mg/kg/injection, schedule: Q01DX009 (ip), vehicle: saline with Tween-80 105 % of control | dose: 12.5 mg/kg/injection, schedule: Q01DX009 (ip), vehicle: saline with Tween-80 103 % of control | dose: 25.0 mg/kg/injection, schedule: Q01DX009 (ip), vehicle: saline with Tween-80 103 % of control | [23] 107 % of control and 114 % of control | [20] 107 % of control and 116 % of control | [21] 115 % of control

C=CC1CN2CCC1CC2C(O)c1ccnc2ccccc12 (centres undefined)
inactive: [24] 98 % of control | [25] 98 % of control

CCOC(=O)c1cc([N+](=O)[O-])c[nH]1
inactive: [23] 97 % of control | [20] 96 % of control | [21] 95 % of control | [22] 89 % of control

S=C(NCCCCCCNC(=S)Nc1ccc2ccccc2n1)Nc1ccc2ccccc2n1
inactive: [5] 100 % of control | [6] 97 % of control | [7] 91 % of control

C=CCC1OC(=O)CCNC(=O)C(C)N(C)C(=O)C(C(C)C)N(C)C(=O)C(C(C)CC)NC(=O)C2CCCN2C1=O (centres undefined) (cyclo([X9]PI[NMeV][NMeA][βAla]); configuration not given here)
inactive: dose: 1.56 mg/kg/injection, schedule: Q01DX005 (ip), vehicle: water 94 % of control | dose: 3.12 mg/kg/injection, schedule: Q01DX005 (ip), vehicle: water 95 % of control | dose: 6.25 mg/kg/injection, schedule: Q01DX005 (ip), vehicle: water 101 % of control | dose: 12.5 mg/kg/injection, schedule: Q01DX005 (ip), vehicle: water 104 % of control

CSC(SC)c1cc(C)no1
inactive: [14] 107 % of control | [15] 101 % of control | [16] 103 % of control

OCCNCCN1CCN(CCCN2c3ccccc3Sc3ccc(C(F)(F)F)cc32)CC1
inactive: dose: 3.12 mg/kg/injection, schedule: Q04DX003 (ip), vehicle: saline 99 % of control | dose: 6.25 mg/kg/injection, schedule: Q04DX003 (ip), vehicle: saline 99 % of control and 101 % of control and 88 % of control | dose: 12.5 mg/kg/injection, schedule: Q04DX003 (ip), vehicle: saline 101 % of control and 102 % of control and 90 % of control | dose: 25.0 mg/kg/injection, schedule: Q04DX003 (ip), vehicle: saline 104 % of control and 106 % of control and 93 % of control

O=C(OCCOCCO)c1ccccc1-c1c2cc(I)c(=O)c(I)c-2oc2c(I)c(O)c(I)cc12
inactive: [24] 94 % of control | [25] 91 % of control | dose: 240.0 mg/kg/injection, schedule: Q01DX005 (ip), vehicle: saline 92 % of control

CC(=O)Oc1c(C)c(C)c2c(c1C)C(I)CC(C)(CCC(C)CCC(C)CCC(C)C)O2 (centres undefined)
inactive: dose: 12.5 mg/kg/injection, schedule: Q01DX009 (ip), vehicle: saline + Tween-80 + alcohol 103 % of control | dose: 25.0 mg/kg/injection, schedule: Q01DX009 (ip), vehicle: saline + Tween-80 + alcohol 113 % of control | dose: 50.0 mg/kg/injection, schedule: Q01DX009 (ip), vehicle: saline + Tween-80 + alcohol 107 % of control | dose: 100.0 mg/kg/injection, schedule: Q01DX009 (ip), vehicle: saline + Tween-80 + alcohol 106 % of control | dose: 200.0 mg/kg/injection, schedule: Q01DX009 (ip), vehicle: saline + Tween-80 + alcohol 119 % of control | dose: 400.0 mg/kg/injection, schedule: Q01DX009 (ip), vehicle: saline + Tween-80 + alcohol 87 % of control
